Structures are written as SMILES.

By IC50 is commonly meant the midpoint of a concentration-inhibition curve. Lower therefore signals inhibition by little substance.

human vanin-1, sequence (O95497 22-491): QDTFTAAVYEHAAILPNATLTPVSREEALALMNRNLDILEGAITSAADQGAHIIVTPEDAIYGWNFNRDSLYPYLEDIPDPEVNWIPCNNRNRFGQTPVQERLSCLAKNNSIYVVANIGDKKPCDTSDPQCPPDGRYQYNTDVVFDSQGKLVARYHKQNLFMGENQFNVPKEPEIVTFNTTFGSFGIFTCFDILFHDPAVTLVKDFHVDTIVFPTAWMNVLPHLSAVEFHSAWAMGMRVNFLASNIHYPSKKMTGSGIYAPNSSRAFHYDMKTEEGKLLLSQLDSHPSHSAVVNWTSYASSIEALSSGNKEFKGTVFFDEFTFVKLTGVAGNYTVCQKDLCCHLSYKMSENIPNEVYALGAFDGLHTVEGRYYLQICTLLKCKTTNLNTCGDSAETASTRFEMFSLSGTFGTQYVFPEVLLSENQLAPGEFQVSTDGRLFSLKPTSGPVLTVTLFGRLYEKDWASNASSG

This test has as its target human vanin-1 (Homo sapiens (Human), UniProt O95497). Nature of the test: Human Vanin-1 Enzyme Assay 1. The format is biochemical. Particulars: 25 pM human vanin-1, 50 uM pantetheine 7-amino-4-trifluoromethylcoumarin substrate. The method, then: Human Vanin-1Enzyme Assay 1.
The in vitro assay measures enzymatic cleavage of the fluorescently-labeled vanin substrate, pantetheine 7-amino-4-trifluoromethylcoumarin, by human vanin-1.
The vanin-1 protein was prepared in-house from a construct expressing the extracellular domain of human vanin-1 (GenBank ID NM_004666) preceded N-terminally by the honey bee melittin signal peptide, a GSG linker sequence, a His6× tag and a FLAG tag. The secreted, soluble enzyme was purified from the conditioned medium from a CHO cell line stably expressing the resulting protein. Enzyme purification was performed through sequential Ni NTA and size-exclusion chromatography steps.
Intermediate concentrations were prepared by diluting in DMSO in a four-fold series for a total of 11 data points.
To begin the assay 100 nL was transferred from the compound plate to the assay plate. Next, 15 μL of the vanin-1 working solution were transferred to the assay plate. The inhibitor and enzyme were incubated at room temperature for 30 minutes. The enzyme reaction was then initiated by the addition of 5 μL of 200 μM pantetheine 7-amino-4-trifluoromethylcoumarin prepared in assay buffer. […] The final concentration of DMSO was 0.5%.
Compound `C[C@H]1CN(C(=O)c2cnc(NC3(c4cncnc4)CC3)nc2)CCO1` [Example 107] had a half-maximal inhibitory concentration (IC50) of 38.6 nM.

In turn, `C[C@H](Nc1ncc(C(=O)N2CC[C@@H](N3CCOCC3)C2)cn1)c1cnccn1` [Example 120] displayed a 50% inhibitory concentration (IC50) of 84.1 nM.

Regarding `Cc1ncc(C(C)Nc2ncc(C(=O)N3CCC4(CCOCC4)C3)cn2)cn1` (stereo not shown) [Example 159], the IC50 was found to be 1.29 nM.

The compound `CCN1CCC2(CCN(C(=O)c3cnc(N[C@@H](C)c4cnccn4)nc3)C2)C1` (stereo partly shown) [Example 117] returned a half-maximal inhibitory concentration (IC50) of 5.11 nM. This IC50 is about 4-fold higher than that of the compound before.

The compound `O=C(c1cnc(NCc2cncnc2)nc1)N1CCC2(CCOCC2)C1` [Example 185] had a 50% inhibitory concentration (IC50) of 7.71 nM.

On to `O=C(c1cnc(NC2(c3cncnc3)CC2)nc1)N1CCC(C(F)F)CC1` [Example 81], for which the IC50 amounted to 102 nM.

As to `C[C@H](Nc1ncc(C(=O)N2CCN3C[C@@H](F)C[C@H]3C2)cn1)c1cnccn1` [Example 121], 3.95 nM corresponded to half-maximal inhibition (IC50).

`CCC1(C)CCN(C(=O)c2cnc(NC3(c4cncnc4)CC3)nc2)CC1` [Example 46] had a concentration for half-maximal inhibition (IC50) of 6.29 nM. Against the preceding compound, the IC50 is about 1.6-fold higher.

Compound `CCC1COC(=O)N1C1CCN(C(=O)c2cnc(NC3(c4cncnc4)CC3)nc2)CC1` (stereo not shown) [Example 36] came in with an IC50 of 1000 nM.

Consider `O=C(c1cnc(NC2(c3ccccn3)CC2)nc1)N1CCC2(CCOCC2)C1` [Example 177], for which half-maximal inhibition (IC50) was put at 0.551 nM.

For `CCOC1CCN(C(=O)c2cnc(NCc3cccnc3)nc2)C1` (stereo not shown) [Example 10], the IC50 came out at 75.9 nM.

As for `O=C(c1cnc(NCc2cccnc2)nc1)N1Cc2ccccc2C1` [Example 19], 407 nM corresponded to half-maximal inhibition (IC50).

As for `CC1CC2(CCN(C(=O)c3cnc(NC4(c5cncnc5)CC4)nc3)C2)CC(C)O1` (stereo not shown) [Example 54], the IC50 came out at 0.283 nM.

In turn, `CO[C@@H]1CN(C(=O)c2cnc(NC3(c4cncnc4)CC3)nc2)C[C@H]1F` [Example 84] had an IC50 of 75.4 nM.

Take `O=C(c1cnc(NC2(c3cncnc3)COC2)nc1)N1CC2(CCOCC2)C1` [Example 134]: half-maximal inhibition (IC50) was put at 0.504 nM.

The compound `CC(Nc1ncc(C(=O)N2CCC3(CCOCC3)C2)cn1)c1cncnc1` (stereo not shown) [Example 183] registered an IC50 of 0.745 nM.

The compound `C[C@H](Nc1ncc(C(=O)N2C[C@H](O)[C@@H](N3CCOCC3)C2)cn1)c1cnccn1` [Example 113] yielded an IC50 of 508 nM. Compared with the last compound, the IC50 is about 680-fold higher.

`O=C(c1cnc(NC2(c3cncnc3)CC2)nc1)N1CCCC(CO)C1` (stereo not shown) [Example 106] showed an IC50 of 30.8 nM.

Take `O=C(c1cnc(NCc2cccnc2)nc1)N1CCC(F)(CO)CC1` [Example 17]: 328 nM corresponded to half-maximal inhibition (IC50).

Compound `O=C(c1cnc(NC2(c3cncnc3)CC2)nc1)N1CCC2(CCO2)CC1` [Example 34] came in with an IC50 of 47.2 nM.

`O=C(c1cnc(NCc2cccnc2)nc1)N1CCC(C(F)(F)F)C1` (stereo not shown) [Example 7] showed a half-inhibitory concentration (IC50) of 17.9 nM.

Take `O=C(c1cnc(NCc2cnccn2)nc1)N1CCN2CCC[C@H]2C1` [Example 129]: the IC50 is 65.9 nM.

With `O=C(c1cnc(NC2(c3cncnc3)CC2)nc1)N1CCC(C(F)(F)F)C1` (single isomer, unassigned) [Example 194], the IC50 came out at 20.2 nM. Compared with the last compound, the IC50 is about 3.3-fold lower.

With `O=C(c1cnc(NC2(c3cncnc3)CC2)nc1)N1CCOCC1` [Example 109], the half-maximal inhibitory concentration (IC50) turned out to be 249 nM.

The compound `O=C(c1cnc(NCc2cccnc2)nc1)N1CC(O)(C2CC2)C1` [Example 5] gave an IC50 of 16 nM. This IC50 lies about 16-fold lower than the previous one.

The compound `O=C(c1cnc(NC2(c3cncnc3)CC2)nc1)N1CCN2C[C@@H](F)C[C@H]2C1` [Example 35] showed an IC50 of 5.42 nM.

For the compound `O=C(c1cnc(NC2(c3cncnc3)CC2)nc1)N1CCC(F)(F)CC1` [Example 98], the concentration for half-maximal inhibition (IC50) turned out to be 5.66 nM.

Compound `O=C(c1cnc(NC2(c3cncnc3)CC2)nc1)N1C[C@@H](CO)[C@H](C(F)(F)F)C1` [Example 53] yielded an IC50 of 12.2 nM.

Compound `Cc1ncc(C(C)Nc2ncc(C(=O)N3CC4(CCOCC4)C3)cn2)cn1` (stereo not shown) [Example 160] gave an IC50 of 2.84 nM.

With `N#CC1CCCN(C(=O)c2cnc(NC3(c4cncnc4)CC3)nc2)C1` (single isomer, unassigned) [Example 197], the half-maximal inhibitory concentration (IC50) is 5.22 nM.

`CCC1(CC)CCN(C(=O)c2cnc(NC3(c4cncnc4)CC3)nc2)C1` [Example 37] had an IC50 of 0.504 nM.

`O=C(c1cnc(NC2(c3cncnc3)CC2)nc1)N1CCC(O)(C(F)(F)F)CC1` [Example 90] came in with an IC50 of 348 nM.

`CCOC1CCCN(C(=O)c2cnc(NC3(c4cncnc4)CC3)nc2)C1` (stereo not shown) [Example 104] showed a concentration for half-maximal inhibition (IC50) of 2.45 nM.

In turn, `O=C(Nc1ncc(C(=O)N2CCC3(CCOCC3)C2)cn1)c1cncnc1` [Example 205, N-[5-(8-oxa-2-azaspiro[4.5]dec-2-ylcarbonyl)pyrimidin-2-yl]pyrimidine-5-carboxamide] came in with an IC50 of 8800 nM.

In the case of `O=C(c1cnc(NCc2cnccn2)nc1)N1C[C@H](O)[C@@H](N2CCOCC2)C1` [Example 115], the concentration for half-maximal inhibition (IC50) turned out to be 16000 nM.

Turning to `O=C(c1cnc(NCc2cccnc2)nc1)N1CCCC(O)C1` (stereo not shown) [Example 22], the IC50 was determined as 559 nM.

With `CO[C@@H]1[C@@H]2CC[C@H]1CN(C(=O)c1cnc(NCc3cccnc3)nc1)C2` [Example 12], 94.1 nM corresponded to half-maximal inhibition (IC50).

`C[C@H]1CN(C(=O)c2cnc(NC3(c4cncnc4)CC3)nc2)C[C@]1(C)CO` (relative stereo) [Example 62] registered a half-maximal inhibitory concentration (IC50) of 3.92 nM. Against the preceding compound, the IC50 is about 24-fold lower.

`CC1(C)CCN(C(=O)c2cnc(NC3(c4cncnc4)CC3)nc2)C1` [Example 191] returned an IC50 of 1.57 nM.

As to `Cc1ccc([C@@H](C)Nc2ncc(C(=O)N3CCC4(CCOCC4)C3)cn2)cn1` [Example 141], the IC50 is 87.3 nM. Against the preceding compound, the IC50 is about 56-fold higher.

With `O=C(c1cnc(NC2(c3cncnc3)CC2)nc1)N1CCC(c2cc[nH]n2)C1` (stereo not shown) [Example 43], 1.35 nM corresponded to half-maximal inhibition (IC50).

In turn, `CC1(O)CCN(C(=O)c2cnc(NCc3cccnc3)nc2)CC1` [Example 9] came in with an IC50 of 48.1 nM.

For `O=C(c1cnc(NC2(c3cncnc3)CC2)nc1)N1CCC(C(O)C(F)(F)F)CC1` (stereo not shown) [Example 60], half-maximal inhibition (IC50) required 2850 nM.

The compound `CC(C)[C@H]1C[C@H](O)CN(C(=O)c2cnc(NC3(c4cncnc4)CC3)nc2)C1` [Example 72] displayed an IC50 of 148 nM.

On to `CN1CC2CN(C(=O)c3cnc(NCc4cnccn4)nc3)CC2C1` (stereo not shown) [Example 123], for which it took 11400 nM to reach half-maximal inhibition (IC50).

Take `O=C(c1cnc(NCc2cnccn2)nc1)N1CC[C@@H](N2CCOCC2)C1` [Example 124]: 4620 nM corresponded to half-maximal inhibition (IC50).

Turning to `C[C@@H](Nc1ncc(C(=O)N2CC3(CCOCC3)C2)cn1)c1cnccn1` [Example 148], it took 54.5 nM to reach half-maximal inhibition (IC50).

`O=C(c1cnc(NC2(c3cncnc3)CC2)nc1)N1C[C@H]2CC[C@@H](C1)O2` [Example 33] yielded an IC50 of 108 nM.

Consider `O=C(c1cnc(NCc2cccnc2)nc1)N1C[C@H]2CCC[C@@H](O)[C@H]2C1` (relative stereo) [Example 3], for which the midpoint of inhibition, the IC50, lay at 1.69 nM.

The compound `O=C(c1cnc(NC2(c3ncccn3)CC2)nc1)N1CCC2(CCOCC2)C1` [Example 178] registered a concentration for half-maximal inhibition (IC50) of 2.18 nM.

`O=C(c1cnc(NCc2cncnc2C(F)(F)F)nc1)N1CC2(CCOCC2)C1` [Example 167]: the IC50 turned out to be 57.7 nM. This IC50 is about 26-fold higher than that of the compound before.

With `C[C@@H](Nc1ncc(C(=O)N2CCC3(CCOCC3)C2)cn1)c1ccncn1` [Example 156], the IC50 is 838 nM.

Take `O=C(c1cnc(NCc2cccnc2)nc1)N1CCC(O)C1` (stereo not shown) [Example 25]: inhibition was half-maximal at 1040 nM (IC50).

Turning to `O=C(c1cnc(NC2(c3cncnc3)CC2)nc1)N1C[C@@H](F)C[C@@H]1CO` [Example 48], the IC50 amounted to 20000 nM.

Compound `C[C@H]1COCCN1C(=O)c1cnc(NC2(c3cncnc3)CC2)nc1` [Example 55] had an IC50 of 2520 nM. This IC50 lies about 7.9-fold lower than the previous one.

With `O=C(c1cnc(NC2(c3cncnc3)CC2)nc1)N1CCC(O)C(C(F)(F)F)C1` (stereo not shown) [Example 94], the midpoint of inhibition, the IC50, lay at 20.4 nM. This IC50 is about 120-fold lower than that of the compound before.

`C[C@H](Nc1ncc(C(=O)N2CC3CN(C)CC3C2)cn1)c1cnccn1` (stereo partly shown) [Example 127]: half-maximal inhibition (IC50) was put at 587 nM.

Consider `CC1(CO)CCN(C(=O)c2cnc(NCc3cccnc3)nc2)CC1` [Example 15], for which the 50% inhibitory concentration (IC50) was 220 nM.

`O=C(c1cnc(OCc2cncnc2)nc1)N1CCC2(CCOCC2)C1` [Example 203, 8-oxa-2-azaspiro[4.5]dec-2-yl[2-(pyrimidin-5-ylmethoxy)pyrimidin-5-yl]methanone]: inhibition was half-maximal at 1090 nM (IC50).

Compound `COCC1CCCN(C(=O)c2cnc(NC3(c4cncnc4)CC3)nc2)C1` (stereo not shown) [Example 71] gave a 50% inhibitory concentration (IC50) of 5.41 nM.

Turning to `O=C(c1cnc(NCc2cnccn2)nc1)N1CCN2C[C@H](O)C[C@H]2C1` [Example 111], the midpoint of inhibition, the IC50, lay at 3590 nM.

As to `O=C(c1cnc(NC2(c3cnccn3)COC2)nc1)N1CCC2(CCOCC2)C1` [Example 132], 0.349 nM corresponded to half-maximal inhibition (IC50).

For the compound `CCC1(CO)CCN(C(=O)c2cnc(NC3(c4cncnc4)CC3)nc2)CC1` [Example 95], the concentration for half-maximal inhibition (IC50) was determined as 30.1 nM.

Compound `CC(=O)N1CCN(C(=O)c2cnc(NCc3cccnc3)nc2)CC1` [Example 24] gave a 50% inhibitory concentration (IC50) of 749 nM.

As to `O=C(c1cnc(NC2(c3cncnc3)CC2)nc1)N1C2CCC1COC2` [Example 97], half-maximal inhibition (IC50) required 345 nM.

`O=C(c1cnc(NC2(c3cncnc3)CC2)nc1)N1CCC(C(F)(F)F)CC1` [Example 63] displayed a concentration for half-maximal inhibition (IC50) of 421 nM.

In turn, `O=C(c1cnc(NCc2cnccn2)nc1)N1CCN2CCC[C@@H]2C1` [Example 128] came in with an IC50 of 384 nM.

In turn, `Cc1cnc(CNc2ncc(C(=O)N3CCC4(CCOCC4)C3)cn2)cn1` [Example 164] had an IC50 of 27.3 nM.

Regarding `O=C(c1cnc(NCc2cnc(C(F)(F)F)nc2)nc1)N1CC2(CCOCC2)C1` [Example 169], half-maximal inhibition (IC50) required 158 nM.

On to `O=C(c1cnc(NC2(c3cncnc3)CC2)nc1)N1CCC2(CCCCO2)CC1` [Example 50], for which the midpoint of inhibition, the IC50, lay at 19.9 nM.

The values are drawn from patent US10906888B2, “Pyrimidine carboxamides as inhibitors of Vanin-1 enzyme” (Pfizer Inc., priority 2016, dated 2021).
